Measured values reported in patent US7223771B2, “Tricyclic imidazopyridines” (Altana Pharma AG, priority 2001, dated 2007).

Test system: pentagastrin-stimulated acid secretion of the perfused rat stomach
Conditions: anesthetized CD rat, dose 3.0 μmol/kg i.d. (intraduodenal)
Excerpt: Testing of the Secretion-Inhibiting Action on the Perfused Rat Stomach
The abdomen of anesthetized rats (CD rat, female, 200–250 g; 1.5 g/kg i.m. urethane) was opened after tracheotomy by a median upper abdominal incision and a PVC catheter was fixed transorally in the esophagus and another via the pylorus such that the ends of the tubes just projected into the gastric lumen. The catheter leading from the pylorus led outward into the right abdominal wall through a side opening.
After thorough rinsing (about 50–100 ml), warm (37° C.) physiological NaCl solution was continuously passed through the stomach (0.5 ml/min, pH 6.8–6.9; Braun-Unita I). The pH (pH meter 632, glass electrode EA 147; φ=5 mm, Metrohm) and, by titration with a freshly prepared 0.01N NaOH solution to pH 7 (Dosimat 665 Metrohm), the secreted HCl were determined in the effluent in each case collected at an interval of 15 minutes.
The gastric secretion was stimulated by continuous infusion of 1 μg/kg (=1.65 ml/h) of i.v. pentagastrin (left femoral vein) about 30 min after the end of the operation (i.e. after determination of 2 preliminary fractions). The substances to be tested were administered intraduodenally in a 2.5 ml/kg liquid volume 60 min after the start of the continuous pentagastrin infusion.
The body temperature of the animals was kept at a constant 37.8–38° C. by infrared irradiation and heat pads (automatic, stepless control by means of a rectal temperature sensor).

Compound | Inhibition of acid secretion [%]
CCN(CC)C(=O)c1cn2c(C)c(C)nc2c2c1CCC(c1ccccc1)O2 (stereo not drawn) [Example 1, 2,3-Dimethyl-9-phenyl-7H-8,9-dihydro-pyrano-[2,3-c]-N-(diethyl)imidazo[1,2-a]pyridine-6-carboxamide] | 100
CCOC(=O)c1cn2c(C)c(C)nc2c2c1CCC(c1ccccc1)O2 (stereo not drawn) [Example 2, Ethyl 2,3-dimethyl-9-phenyl-7H-8,9-dihydro-pyrano[2,3-c]-imidazo[1,2-a]pyridine-6-carboxylate] | 100
Cc1nc2c3c(c(C(=O)N(C)C)cn2c1C)CCC(c1ccccc1)O3 (stereo not drawn) [Example 3, 2,3-Dimethyl-9-phenyl-7H-8,9-dihydro-pyrano[2,3-c]-imidazo[1,2-a]pyridine-6-(N,N-dimethyl)carbamide] | 100
